# System: cat flea (Ctenocephalides felis)
# Experiment: Residual efficacy against adult cat flea infestations on dogs, oral
# Type: in vivo
# Details: Day 32
# Method: Immediately following removal of D. variabilis ticks on Day 30, dogs were co-infested with approximately 50 adult, unfed brown dog ticks (R. sanguineus, approximately 50% male and 50% female) and approximately 100 adult, unfed cat fleas (C. felis, approximately 50% male and 50% female). Ticks and fleas were counted and removed on Day 32 (approximately 48 hours after infestation). GM percent efficacy of treatments against both tick species and fleas was calculated using the following formula: […]
# The therapeutic (knockdown) and residual efficacy of 7, administered orally at a point dose of 35 mg/kg bodyweight, was evaluated against adult tick (Dermacentor variabilis and Rhipicephalus sanguineus) and adult cat flea (Ctenocephalides felis) infestations on dogs. Twelve (12) male and female beagle dogs were allocated to either an untreated, negative control group or 7 group (n=6 dogs per group). Dogs were infested with approximately 50 unfed, adult D. variabilis ticks on Days −1, 5, 12, 19, 28, 35 and 42. On Day 0, dogs were orally administered gelatin capsules containing Compound 8194 (50% technical active, 47% microcrystalline cellulose and 3% croscarmellose sodium, w/w) at a point dose of 35 mg/kg. D. variabilis tick counts and classification were conducted on Day 1 (thumb count, approximately 24 hours after treatment) and Days 2, 7, 14, 21, 30, 37 and 44 (approximately 48 hours after treatment). Following removal of D. variabilis ticks on Day 30, all dogs were co-infested with approximately 50 unfed, adult brown dog ticks (R. sanguineus) and approximately 100 unfed, adult cat fleas (C. felis). Brown dog tick and cat flea counts were conducted on Day 32 (approximately 48 hours after infestation). GM percent efficacy of treatments against both tick species and fleas was calculated using the following formula: […]
# The therapeutic (knockdown) and residual efficacy of S-enantiomer, 9, administered orally at a point dose of 25 mg/kg bodyweight, was evaluated against adult tick (Dermacentor variabilis and Rhipicephalus sanguineus) and adult cat flea (Ctenocephalides felis) infestations on dogs. Twelve (12) male and female beagle dogs were allocated to either an untreated, negative control group or 9 group (n=6 dogs per group). Dogs were infested with approximately 50 unfed, adult D. variabilis ticks on Days −1, 5, 12, 19, and 28. On Day 0, dogs were orally administered gelatin capsules containing 9 (50% technical active, 47% microcrystalline cellulose and 3% croscarmellose sodium, w/w) at a point dose of 25 mg/kg. D. variabilis tick counts and classification were conducted on Day 1 (thumb count, approximately 24 hours after treatment) and Days 2, 7, 14, 21 and 30 (approximately 48 hours after treatment). Following removal of D. variabilis ticks on Day 30, all dogs were co-infested with approximately 50 unfed, adult brown dog ticks (R. sanguineus) and approximately 100 unfed, adult cat fleas (C. felis). Brown dog tick and cat flea counts were conducted on Day 32 (approximately 48 hours after infestation). GM percent efficacy of treatments against both tick species and fleas was calculated using the following formula: […]
compound,measurement,setting,value
"Cc1cc(C2=NOC(c3cc(Cl)c(Cl)c(Cl)c3)(C(F)(F)F)C2)ccc1C(=O)NCc1ccc2c(c1)B(O)OC2(C)C (centres unmarked) [Compound 7, N-((1-Hydroxy-3,3-dimethyl-1,3-dihydrobenzo[c][1,2]oxaborol-6-yl)methyl)-2-methyl-4-(5-(3,4,5-trichlorophenyl)-5-(trifluoromethyl)-4,5-dihydroisoxazol-3-yl)benzamide]",Residual efficacy,"Example 7, oral capsule 35 mg/kg",100%
same,Geometric mean group live parasite counts,"Table 2, oral capsule 25 mg/kg",0.9
